Experimental data as given in US12391679B2, “Benzamide-substituted bicyclic imidazo- and pyrazolo-fused -pyridine, -pyrimide, and -pyridazine compounds for treatment of inflammatory diseases” (ONCO3R Therapeutics BV, priority 2019, dated 2025).
pIC50: −log10 of the molar value.

Tests used:
Format in all cases: biochemical
SIK1 = target: T1, SIK1 (Homo sapiens, UniProt P57059); test: ADP-Glo kinase assay, SIK1
T1 construct: purchased Carna Biosciences 02-131
Method: (§1) The ADP-Glo™ kinase assay is a luminescent technology assay which measures the ADP formed from a kinase reaction. […] In a second step the kinase reactions are terminated and all the remaining ATP is depleted. In a final step the ADP is converted into ATP and this newly synthesized ATP is measured by using a luciferase/luciferin reaction. The generated light is measured using an Envision plate reader, wherein the luminescent signal obtained positively correlates with the kinase activity.
(§2) 1% DMSO and 10 μM staurosporine final concentrations are used as negative and positive controls.
(§3) 2 μL enzyme-substrate mixture is added to the assay plates.
(§4) The reaction is started by adding 2 μL diluted ATP on the assay plates. Plates are centrifuged for a few seconds at 1000 rpm and gently shaken for […] followed by an incubation at RT for 120 min.
(§5) The reactions are stopped and the unconsumed ATP is depleted by adding 5 μL ADP-Glo Reagent (Promega, Cat #V9120) to the reaction. The plates are centrifuged for a few seconds at 1000 rpm and incubated at RT for 40 min (ATP depletion).
(§6) The ADP is converted to ATP and luciferase and luciferin is introduced to detect ATP by adding 10 μL Kinase Detection Reagent (Promega, Cat #V913B+V914r) to the reaction. The plates are centrifuged for a few seconds at 1000 rpm and incubated at RT for 30 min (ADP detection).
(§7) Luminescence is measured on an Envision plate reader (PerkinElmer Inc.).

SIK2 = target: T2, SIK2 (Homo sapiens, UniProt Q9H0K1); test: ADP-Glo kinase assay, SIK2
T2 construct: purchased ThermoFisher Scientific PV4792
Method: as §1, §2, §3, §4, §5, §6, §7

SIK3 = target: T3, SIK3 (Homo sapiens, UniProt Q9Y2K2); test: ADP-Glo kinase assay, SIK3
T3 construct: purchased SignalChem S12-11G-100
Method: as §1, §2, §3, §4, §5, §6, §7

T1 sequence (P57059 whole entry): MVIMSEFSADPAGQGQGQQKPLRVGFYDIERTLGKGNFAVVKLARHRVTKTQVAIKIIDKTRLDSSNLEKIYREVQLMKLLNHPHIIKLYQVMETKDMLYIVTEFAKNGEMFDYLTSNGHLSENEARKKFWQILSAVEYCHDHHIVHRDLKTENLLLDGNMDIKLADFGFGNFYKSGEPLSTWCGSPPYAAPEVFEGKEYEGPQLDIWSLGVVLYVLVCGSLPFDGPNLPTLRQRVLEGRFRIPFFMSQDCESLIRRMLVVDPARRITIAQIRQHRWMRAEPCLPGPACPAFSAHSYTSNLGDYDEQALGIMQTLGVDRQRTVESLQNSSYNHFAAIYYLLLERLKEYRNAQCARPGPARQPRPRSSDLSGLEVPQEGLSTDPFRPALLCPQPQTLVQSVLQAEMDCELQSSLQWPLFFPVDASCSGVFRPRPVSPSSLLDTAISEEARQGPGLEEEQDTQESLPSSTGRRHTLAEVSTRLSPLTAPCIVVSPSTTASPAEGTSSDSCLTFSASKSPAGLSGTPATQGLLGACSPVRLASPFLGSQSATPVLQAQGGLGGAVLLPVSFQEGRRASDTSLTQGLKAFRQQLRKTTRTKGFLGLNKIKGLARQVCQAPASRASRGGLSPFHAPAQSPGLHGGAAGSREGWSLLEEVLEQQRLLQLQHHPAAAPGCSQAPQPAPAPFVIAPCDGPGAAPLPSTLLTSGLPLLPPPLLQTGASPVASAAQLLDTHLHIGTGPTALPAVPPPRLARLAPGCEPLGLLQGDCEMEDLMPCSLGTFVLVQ
T2 sequence (Q9H0K1 whole entry): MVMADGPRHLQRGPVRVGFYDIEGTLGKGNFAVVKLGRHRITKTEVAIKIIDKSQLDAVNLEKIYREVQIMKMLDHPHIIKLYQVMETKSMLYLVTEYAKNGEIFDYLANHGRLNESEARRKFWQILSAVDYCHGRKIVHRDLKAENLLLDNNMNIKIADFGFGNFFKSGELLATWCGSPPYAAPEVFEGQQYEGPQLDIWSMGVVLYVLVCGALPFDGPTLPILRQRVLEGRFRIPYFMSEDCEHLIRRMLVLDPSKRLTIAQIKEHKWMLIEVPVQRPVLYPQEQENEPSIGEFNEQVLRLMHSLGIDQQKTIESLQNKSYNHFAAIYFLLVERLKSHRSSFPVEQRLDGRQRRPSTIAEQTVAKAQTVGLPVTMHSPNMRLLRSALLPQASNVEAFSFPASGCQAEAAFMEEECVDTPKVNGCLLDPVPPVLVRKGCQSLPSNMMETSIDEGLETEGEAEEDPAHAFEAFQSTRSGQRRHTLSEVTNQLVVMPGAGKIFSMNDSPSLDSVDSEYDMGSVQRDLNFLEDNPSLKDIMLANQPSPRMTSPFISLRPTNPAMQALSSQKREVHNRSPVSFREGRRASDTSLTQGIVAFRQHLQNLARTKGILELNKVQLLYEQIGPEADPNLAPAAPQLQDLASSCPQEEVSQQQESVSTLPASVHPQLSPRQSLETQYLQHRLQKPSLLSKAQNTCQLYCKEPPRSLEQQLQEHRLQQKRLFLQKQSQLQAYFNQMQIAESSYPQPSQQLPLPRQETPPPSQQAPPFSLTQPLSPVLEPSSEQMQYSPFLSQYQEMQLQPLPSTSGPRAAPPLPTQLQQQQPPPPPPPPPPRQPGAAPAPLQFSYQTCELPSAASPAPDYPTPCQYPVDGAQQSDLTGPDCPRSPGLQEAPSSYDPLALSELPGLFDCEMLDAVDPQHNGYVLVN
T3 sequence (Q9Y2K2 59-365 limits assumed): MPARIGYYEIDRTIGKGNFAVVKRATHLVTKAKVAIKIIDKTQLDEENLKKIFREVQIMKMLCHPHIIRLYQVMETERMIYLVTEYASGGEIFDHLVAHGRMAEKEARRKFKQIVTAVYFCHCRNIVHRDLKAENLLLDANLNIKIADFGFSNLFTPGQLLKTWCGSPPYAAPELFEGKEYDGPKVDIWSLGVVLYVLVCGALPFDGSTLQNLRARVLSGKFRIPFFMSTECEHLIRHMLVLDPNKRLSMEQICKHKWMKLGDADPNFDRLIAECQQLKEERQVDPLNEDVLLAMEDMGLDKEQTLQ

Row | Compound | pIC50 (SIK1) | pIC50 (SIK2) | pIC50 (SIK3)
1 | COc1cc(-c2cnc3cc(C4CCNCC4)ccn23)cc(OC(F)F)c1C(=O)NC1CC1 [Cpd 66, N-cyclopropyl-2-(difluoromethoxy)-6-methoxy-4-[7-(4-piperidyl)imidazo[1,2-a]pyridin-3-yl]benzamide] | < 6.30 | 7.00 to 8.00 | 7.00 to 8.00
2 | COc1cc(-c2cnc3cc(C(C)(C)C#N)ccn23)cc(OC(F)F)c1C(=O)NC(C)C(F)F (stereo not drawn) [Cpd 71, 4-[7-(1-cyano-1-methyl-ethyl)imidazo[1,2-a]pyridin-3-yl]-2-(difluoromethoxy)-N-(2,2-difluoro-1-methyl-ethyl)-6-methoxy-benzamide] | < 6.30 | < 6.30 | 7.00 to 8.00
3 | COc1cc(-c2cnc3cc(C(C)(C)C#N)ccn23)cc(OC(F)F)c1C(=O)NCC(C)C [Cpd 72, 4-[7-(1-cyano-1-methyl-ethyl)imidazo[1,2-a]pyridin-3-yl]-2-(difluoromethoxy)-N-isobutyl-6-methoxy-benzamide] | < 6.30 | < 6.30 | 7.00 to 8.00
4 | COc1cc(-c2cnc3cc(C(C)(C)C#N)ccn23)cc(OC(F)F)c1C(=O)NC1(C(C)C)CC1 [Cpd 80, 4-[7-(1-cyano-1-methyl-ethyl)imidazo[1,2-a]pyridin-3-yl]-2-(difluoromethoxy)-N-(1-isopropylcyclopropyl)-6-methoxy-benzamide] | < 6.30 | < 6.30 | < 6.30
5 | COCC1(NC(=O)c2c(OC)cc(-c3cnc4cc(C(C)(C)C#N)ccn34)cc2OC(F)F)CC1 [Cpd 81, 4-[7-(1-cyano-1-methyl-ethyl)imidazo[1,2-a]pyridin-3-yl]-2-(difluoromethoxy)-6-methoxy-N-[1-(methoxymethyl)cyclopropyl]benzamide] | < 6.30 | < 6.30 | < 6.30
6 | COc1cc(-c2cnc3cc(C(C)(C)C#N)ccn23)cc(OC(F)F)c1C(=O)N(C)CC1CC1 [Cpd 82, 4-[7-(1-cyano-1-methyl-ethyl)imidazo[1,2-a]pyridin-3-yl]-N-(cyclopropylmethyl)-2-(difluoromethoxy)-6-methoxy-N-methyl-benzamide] | < 6.30 | < 6.30 | < 6.30
7 | CCC1(NC(=O)c2c(OC)cc(-c3cnc4cc(C(C)(C)C#N)ccn34)cc2OC(F)F)CC1 [Cpd 83, 4-[7-(1-cyano-1-methyl-ethyl)imidazo[1,2-a]pyridin-3-yl]-2-(difluoromethoxy)-N-(1-ethylcyclopropyl)-6-methoxy-benzamide] | < 6.30 | < 6.30 | < 6.30
8 | COc1cc(-c2cnc3cc(C(C)(C)C#N)ccn23)cc(OC(F)F)c1C(=O)N(C)C1CC1 [Cpd 84, 4-[7-(1-cyano-1-methyl-ethyl)imidazo[1,2-a]pyridin-3-yl]-N-cyclopropyl-2-(difluoromethoxy)-6-methoxy-N-methyl-benzamide] | < 6.30 | < 6.30 | 6.30 to 7.00
9 | COc1cc(-c2cnc3cc(C(C)(C)C#N)ccn23)cc(OC(F)F)c1C(=O)NCC1CCOC1 (stereo not drawn) [Cpd 85, 4-[7-(1-cyano-1-methyl-ethyl)imidazo[1,2-a]pyridin-3-yl]-2-(difluoromethoxy)-6-methoxy-N-(tetrahydrofuran-3-ylmethyl)benzamide] | < 6.30 | < 6.30 | 6.30 to 7.00
10 | COc1cc(-c2cnc3cc(C(C)(C)C#N)ccn23)cc(OC(F)F)c1C(=O)NC(CO)C1CC1 (stereo not drawn) [Cpd 87, 4-[7-(1-cyano-1-methyl-ethyl)imidazo[1,2-a]pyridin-3-yl]-N-(1-cyclopropyl-2-hydroxy-ethyl)-2-(difluoromethoxy)-6-methoxy-benzamide] | < 6.30 | < 6.30 | < 6.30
11 | COc1cc(-c2cnc3cc(C(C)(C)C#N)ccn23)cc(OC(F)F)c1C(=O)NCC1CCC1 [Cpd 90, 4-[7-(1-cyano-1-methyl-ethyl)imidazo[1,2-a]pyridin-3-yl]-N-(cyclobutylmethyl)-2-(difluoromethoxy)-6-methoxy-benzamide] | < 6.30 | < 6.30 | 7.00 to 8.00
12 | COc1cc(-c2cnc3cc(C4CN(C)C4)ccn23)cc(OC(F)F)c1C(=O)NC1CC1 [Cpd 91, N-cyclopropyl-2-(difluoromethoxy)-6-methoxy-4-[7-(1-methylazetidin-3-yl)imidazo[1,2-a]pyridin-3-yl]benzamide] | < 6.30 | 6.30 to 7.00 | 7.00 to 8.00
13 | COc1cc(-c2cnc3cc(C(C)(C)C#N)ccn23)cc(OC(F)F)c1C(=O)N[C@H]1CCCC[C@@H]1N [Cpd 92, N-[(1S,2S)-2-aminocyclohexyl]-4-[7-(1-cyano-1-methyl-ethyl)imidazo[1,2-a]pyridin-3-yl]-2-(difluoromethoxy)-6-methoxy-benzamide] | < 6.30 | < 6.30 | 7.00 to 8.00

More lines, now with the values ahead:

Row | pIC50 (SIK1) | pIC50 (SIK2) | pIC50 (SIK3) | Compound
14 | < 6.30 | < 6.30 | 7.00 to 8.00 | COc1cc(-c2cnc3cc(C(C)(C)C#N)ccn23)cc(OC(F)F)c1C(=O)NC1CS(=O)(=O)C1 [Cpd 73, 4-[7-(1-cyano-1-methyl-ethyl)imidazo[1,2-a]pyridin-3-yl]-2-(difluoromethoxy)-N-(1,1-dioxothietan-3-yl)-6-methoxy-benzamide]
15 | < 6.30 | < 6.30 | 7.00 to 8.00 | COc1cc(-c2cnc3cc(C(C)(C)C#N)ccn23)cc(OC(F)F)c1C(=O)N1CC(O)(C2CC2)C1 [Cpd 74, 2-[3-[4-(3-cyclopropyl-3-hydroxy-azetidine-1-carbonyl)-3-(difluoromethoxy)-5-methoxy-phenyl]imidazo[1,2-a]pyridin-7-yl]-2-methyl-propanenitrile]
16 | < 6.30 | 6.30 to 7.00 | 8.00 to 11.00 | COc1cc(-c2cnc3cc(C(C)(C)C#N)ccn23)cc(OC(F)F)c1C(=O)N1CC(O)(C(F)(F)F)C1 [Cpd 75, 2-[3-[3-(difluoromethoxy)-4-[3-hydroxy-3-(trifluoromethyl)azetidine-1-carbonyl]-5-methoxy-phenyl]imidazo[1,2-a]pyridin-7-yl]-2-methyl-propanenitrile]
17 | < 6.30 | 6.30 to 7.00 | 8.00 to 11.00 | COc1cc(-c2cnc3cc(C(C)(C)C#N)ccn23)cc(OC(F)F)c1C(=O)N1CC(C(F)(F)F)C1 [Cpd 76, 2-[3-[3-(difluoromethoxy)-5-methoxy-4-[3-(trifluoromethyl)azetidine-1-carbonyl]phenyl]imidazo[1,2-a]pyridin-7-yl]-2-methyl-propanenitrile]
18 | < 6.30 | < 6.30 | 7.00 to 8.00 | COc1cc(-c2cnc3cc(C(C)(C)C#N)ccn23)cc(OC(F)F)c1C(=O)NC(C)C [Cpd 78, 4-[7-(1-cyano-1-methyl-ethyl)imidazo[1,2-a]pyridin-3-yl]-2-(difluoromethoxy)-N-isopropyl-6-methoxy-benzamide]
19 | < 6.30 | < 6.30 | 7.00 to 8.00 | COc1cc(-c2cnc3cc(C(C)(C)C#N)ccn23)cc(OC(F)F)c1C(=O)NC1CCOC1 (stereo not drawn) [Cpd 86, 4-[7-(1-cyano-1-methyl-ethyl)imidazo[1,2-a]pyridin-3-yl]-2-(difluoromethoxy)-6-methoxy-N-tetrahydrofuran-3-yl-benzamide]
20 | < 6.30 | < 6.30 | 7.00 to 8.00 | COc1cc(-c2cnc3cc(C(C)(C)C#N)ccn23)cc(OC(F)F)c1C(=O)NC1CC(F)(F)C1 [Cpd 88, 4-[7-(1-cyano-1-methyl-ethyl)imidazo[1,2-a]pyridin-3-yl]-N-(3,3-difluorocyclobutyl)-2-(difluoromethoxy)-6-methoxy-benzamide]
21 | < 6.30 | < 6.30 | 7.00 to 8.00 | C#CC1(O)CN(C(=O)c2c(OC)cc(-c3cnc4cc(C(C)(C)C#N)ccn34)cc2OC(F)F)C1 [Cpd 89, 2-[3-[3-(difluoromethoxy)-4-(3-ethynyl-3-hydroxy-azetidine-1-carbonyl)-5-methoxy-phenyl]imidazo[1,2-a]pyridin-7-yl]-2-methyl-propanenitrile]
22 | < 6.30 | < 6.30 | < 6.30 | COc1cc(-c2cnc3cc(C(C)(C)C#N)ccn23)cc(OC(F)F)c1C(=O)N1CC(NC(=O)OC(C)(C)C)C1 [Cpd 94, tert-butyl N-[1-[4-[7-(1-cyano-1-methyl-ethyl)imidazo[1,2-a]pyridin-3-yl]-2-(difluoromethoxy)-6-methoxy-benzoyl]azetidin-3-yl]carbamate]
23 | < 6.30 | < 6.30 | 7.00 to 8.00 | COc1cc(-c2cnc3cc(C(C)(C)C#N)ccn23)cc(OC(F)F)c1C(=O)N1CC(CO)C1 [Cpd 97, 2-[3-[3-(difluoromethoxy)-4-[3-(hydroxymethyl)azetidine-1-carbonyl]-5-methoxy-phenyl]imidazo[1,2-a]pyridin-7-yl]-2-methyl-propanenitrile]
24 | < 6.30 | < 6.30 | 7.00 to 8.00 | COc1cc(-c2cnc3cc(C(C)(C)C#N)ccn23)cc(OC(F)F)c1C(=O)N1CC(OC)C1 [Cpd 98, 2-[3-[3-(difluoromethoxy)-5-methoxy-4-(3-methoxyazetidine-1-carbonyl)phenyl]imidazo[1,2-a]pyridin-7-yl]-2-methyl-propanenitrile]
